Results on eight molecules are retold here after PubChem BioAssay (NCI).

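Test compounds were applied to cells in 96-well plates for 48 hours at 5 doses. Here, GI50 denotes the concentration required for 50% inhibition of growth. TGI denotes the concentration required for complete inhibition of growth.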

Among the test systems are SK-MEL-28 melanoma; U251 CNS; HCT-116 colon; DU-145 prostate; SN12C renal; SK-MEL-5 melanoma; MOLT-4 leukemia; BT-549 breast; SNB-19 CNS; NCI-H460 lung.
Holding throughout (assay): NCI tumour cell line growth inhibition, 48 h

`COc1cccc(/C=C/c2ccnc3ccccc23)c1OC`: the TGI with SK-MEL-28 melanoma, in the assay on U251 CNS, in the assay with HCT-116 colon, with DU-145 prostate, in the assay on SN12C renal and with SK-MEL-5 melanoma was over 10 µM throughout. The TGI in the assay on MOLT-4 leukemia, in the assay on BT-549 breast, with SNB-19 CNS and with NCI-H460 lung was over 10 µM each time.
`O=C1c2cccnc2C(=O)c2c1c(C(=O)NCCn1ccnc1)c1ccccn21`: the GI50 is 4.66 µM in the assay on SK-MEL-28 melanoma; 2.96 µM in the assay on U251 CNS; 3.18 µM in the assay on HCT-116 colon; 3.09 µM with DU-145 prostate; 2.28 µM in the assay with SN12C renal; 1.06 µM in the assay on SK-MEL-5 melanoma. For the same molecule, the GI50 with MOLT-4 leukemia was 3.89 µM; in the assay with BT-549 breast, 5.14 µM; in the assay with SNB-19 CNS it was 2.22 µM; in the assay with NCI-H460 lung, 0.551 µM. The TGI stood at 20.7 µM with SK-MEL-28 melanoma; 9.18 µM in the assay on U251 CNS; 9.58 µM in the assay on HCT-116 colon; 12.4 µM in the assay on DU-145 prostate; 7.28 µM in the assay on SN12C renal; 2.26 µM in the assay with SK-MEL-5 melanoma. For the same molecule, the TGI in the assay on MOLT-4 leukemia turned out to be 47.9 µM; with BT-549 breast, 16.9 µM; in the assay with SNB-19 CNS, 11.9 µM; in the assay on NCI-H460 lung, 2.29 µM.
For `O=C(CCl)Nc1cc(Cl)c(Cl)cc1Cl`, the TGI with SK-MEL-28 melanoma was 4.04 µM; in the assay with U251 CNS it was 3.94 µM; in the assay on HCT-116 colon it was 2.94 µM; in the assay on DU-145 prostate, 7.06 µM; in the assay with SN12C renal it was 2.96 µM; with SK-MEL-5 melanoma it was 3.17 µM. The TGI in the assay on MOLT-4 leukemia was over 10 µM; in the assay with BT-549 breast it was 3.53 µM; in the assay with SNB-19 CNS it was 4.43 µM; in the assay with NCI-H460 lung it was 7.04 µM.
As for `Cc1ccc(NC(=O)Nc2c(Cl)cccc2Cl)cn1`, the GI50 was 58.2 µM in the assay with SK-MEL-28 melanoma; 5.07 µM in the assay on U251 CNS; 11.1 µM in the assay on HCT-116 colon; 16.2 µM with DU-145 prostate; 55.4 µM with SN12C renal; 5.06 µM with SK-MEL-5 melanoma. The GI50 with MOLT-4 leukemia is 6.38 µM; in the assay on BT-549 breast it was 59.1 µM; in the assay on SNB-19 CNS it was 26.1 µM; in the assay on NCI-H460 lung it was 4.91 µM. Also, the TGI with SK-MEL-28 melanoma is over 100 µM; with U251 CNS it was over 100 µM; in the assay on HCT-116 colon it was over 100 µM; with DU-145 prostate, 76.6 µM; in the assay on SN12C renal, over 100 µM; in the assay with SK-MEL-5 melanoma it was over 100 µM. For the same molecule, the TGI in the assay with MOLT-4 leukemia is 32.4 µM; in the assay with BT-549 breast, over 100 µM; in the assay with SNB-19 CNS, over 100 µM; in the assay on NCI-H460 lung, 36.1 µM.
For `C=C1C(=O)O[C@H]2[C@H]1CC/C(Cn1cc(-c3cccc(Cl)c3)nn1)=C\CC[C@@]1(C)O[C@@H]21`, the GI50 in the assay on SK-MEL-28 melanoma was 0.351 µM; in the assay with U251 CNS, 1.61 µM; in the assay with HCT-116 colon it was 0.163 µM; with DU-145 prostate, 1 µM; with SN12C renal, 1.4 µM; in the assay on SK-MEL-5 melanoma, 1.7 µM. For the same molecule, the GI50 in the assay with MOLT-4 leukemia was 0.31 µM; in the assay with BT-549 breast, 0.778 µM; in the assay with SNB-19 CNS, 2.4 µM; with NCI-H460 lung, 2.13 µM. For the same molecule, the TGI in the assay on SK-MEL-28 melanoma amounted to 1.27 µM; with U251 CNS, 3.01 µM; in the assay on HCT-116 colon it was 0.377 µM; with DU-145 prostate, 2.16 µM; in the assay on SN12C renal, 3.35 µM; with SK-MEL-5 melanoma, 3.08 µM. Further, the TGI in the assay on MOLT-4 leukemia came to 1.25 µM; with BT-549 breast it was 2.1 µM; in the assay with SNB-19 CNS, 6.45 µM; with NCI-H460 lung, 4.52 µM.
Take `Cc1ccc(/C=C/c2c(C(=O)/C=C/c3ccc(Cl)cc3)c(C)nc3ccccc23)cc1`: the GI50 with SK-MEL-28 melanoma is 1.84 µM; in the assay on U251 CNS, 1.7 µM; with HCT-116 colon, 0.526 µM; with DU-145 prostate, 1.74 µM; with SK-MEL-5 melanoma, 1.62 µM; with MOLT-4 leukemia it was 2.18 µM. The GI50 in the assay on BT-549 breast was 1.4 µM; with SNB-19 CNS it was 1.75 µM; in the assay on NCI-H460 lung it was 1.73 µM. The TGI in the assay with SK-MEL-28 melanoma is 3.41 µM; in the assay with U251 CNS, 3.38 µM; in the assay on HCT-116 colon, 2.02 µM; with DU-145 prostate it was 3.27 µM; in the assay with SK-MEL-5 melanoma, 3 µM; in the assay on MOLT-4 leukemia it was over 100 µM. The TGI in the assay with BT-549 breast came out at 2.93 µM; with SNB-19 CNS it was 3.28 µM; with NCI-H460 lung, 3.49 µM.
For the molecule `N#Cc1ccccc1C#C/C=C\C#CC#C/C=C\C#Cc1ccccc1C#N`, the GI50 is 10.6 µM in the assay with SK-MEL-28 melanoma; 12.4 µM with U251 CNS; 13.6 µM in the assay on HCT-116 colon; 29.3 µM with DU-145 prostate; 10.4 µM with SK-MEL-5 melanoma; 15.6 µM with MOLT-4 leukemia. Moreover, the GI50 was 20.9 µM in the assay on BT-549 breast, 7.27 µM in the assay with SNB-19 CNS and 41.3 µM with NCI-H460 lung. Besides, the TGI was 49.6 µM in the assay on SK-MEL-28 melanoma; 47.1 µM with U251 CNS; 30.2 µM in the assay with HCT-116 colon; over 100 µM in the assay with DU-145 prostate; 27.9 µM in the assay with SK-MEL-5 melanoma; 89.3 µM in the assay with MOLT-4 leukemia. The TGI with BT-549 breast, in the assay on SNB-19 CNS and in the assay with NCI-H460 lung was over 100 µM in each case.
With `Cc1ccc(Cl)cc1NC(=O)c1cc2ccccc2cc1O`, the GI50 in the assay with U251 CNS was 0.319 µM; in the assay on HCT-116 colon, 0.284 µM; with DU-145 prostate, 0.479 µM; in the assay with SN12C renal, 0.265 µM; in the assay on SK-MEL-5 melanoma, 0.277 µM; with MOLT-4 leukemia it was 0.558 µM. Also, the GI50 in the assay on BT-549 breast is 0.294 µM; in the assay on SNB-19 CNS it was 0.442 µM; in the assay with NCI-H460 lung it was 0.376 µM. Further, the TGI was 4.12 µM with U251 CNS; 0.924 µM in the assay on HCT-116 colon; over 24.7 µM with DU-145 prostate; 1.92 µM with SN12C renal; 0.824 µM in the assay on SK-MEL-5 melanoma; 3.42 µM with MOLT-4 leukemia. Besides, the TGI was 1.28 µM in the assay with BT-549 breast, over 40.1 µM with SNB-19 CNS and 2.28 µM with NCI-H460 lung.
